In test [1] the target is T1, SLC26A3 (Mus musculus, UniProt Q9WVC8).
T1 sequence (Q9WVC8 1-757): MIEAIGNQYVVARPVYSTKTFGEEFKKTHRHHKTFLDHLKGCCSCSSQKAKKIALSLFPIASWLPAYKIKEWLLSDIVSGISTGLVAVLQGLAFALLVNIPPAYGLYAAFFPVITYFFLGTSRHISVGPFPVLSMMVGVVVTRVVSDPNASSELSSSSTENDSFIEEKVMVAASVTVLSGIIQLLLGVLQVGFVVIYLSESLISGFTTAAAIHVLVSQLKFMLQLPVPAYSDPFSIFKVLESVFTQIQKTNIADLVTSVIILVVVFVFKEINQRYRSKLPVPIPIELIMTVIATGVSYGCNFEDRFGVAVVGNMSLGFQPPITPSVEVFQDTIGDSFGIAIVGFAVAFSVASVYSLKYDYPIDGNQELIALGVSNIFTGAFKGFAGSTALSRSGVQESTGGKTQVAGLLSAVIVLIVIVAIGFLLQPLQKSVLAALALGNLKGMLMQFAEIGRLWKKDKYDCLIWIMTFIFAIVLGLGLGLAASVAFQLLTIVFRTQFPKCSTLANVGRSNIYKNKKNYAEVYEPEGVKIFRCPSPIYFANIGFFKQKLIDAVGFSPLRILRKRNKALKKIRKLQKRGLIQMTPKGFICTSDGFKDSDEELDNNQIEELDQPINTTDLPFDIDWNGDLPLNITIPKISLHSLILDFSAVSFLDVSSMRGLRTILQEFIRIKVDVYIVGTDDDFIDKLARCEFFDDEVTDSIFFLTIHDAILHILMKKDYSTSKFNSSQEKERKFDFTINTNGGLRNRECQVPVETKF
Briefly: Transepithelial oxalate transport in FRT monolayers expressing SLC26A3. To be noted: pretreatment 15 min, even at 0.1 μM; 500 μM oxalate gradient. The class given is cell-based. The procedure:
In order to determine the effects of DRAinh-A270 on oxalate transport at physiologically relevant concentrations, transepithelial oxalate transport was measured in Fischer rat thyroid (FRT) monolayers expressing SLC26A3 (FRT-A3 cells) permeable filters and exposed to a 500 μM oxalate concentration gradient.
Oxalate transport rate plotted for studies done in FRT cells expressing SLC26A3 (FRT-A3) pretreated with indicated concentrations of DRAinh-A270 (or DMSO control) for 15 min prior to application of the oxalate gradient. FRT cells not expressing SLC26A3 (FRT-null) are shown as controls. Mean±S.E.M., n=6-12 wells per condition. One-way analysis of variance with post hoc Newman-Keuls multiple comparisons test, **p<0.01, ns: not significant.

Test [2] has as its system mouse distal colonic loops. Kind of test: Oxalate absorption in closed distal colonic loops. Type of test: in vivo. To be noted: luminal 10 μM, 500 μM oxalate, 60 min. The procedure:
To investigate DRAinh-A270 inhibition of intestinal oxalate transport, experiments were conducted using closed distal colonic loops in which SLC26A3 is the major apical membrane anion transporter. Colonic loops were injected with the solution containing 500 μM sodium oxalate and loop fluid was removed at 60 min to quantify remaining oxalate concentration. To avoid confounding effects of fluid absorption, Cl^−-free solution with amiloride (to block ENaC) was used.

In the next test the target is T2, DRA (Mus musculus, UniProt Q9WVC8).
T2 sequence (Q9WVC8 1-757): T1 sequence (Q9WVC8 1-757)
Briefly: Extracellular action: reversal of DRA inhibition after washout. Type of test: cell-based. The conditions noted are these: cells incubated 10 min at 5 times IC50; measured at 20-30 second after washout. As for the experimental part:
Inhibition was then measured without washout and at 20-30 second after washout.

Test [3] deals with T1, SLC26A3. Briefly: SLC26A3 inhibition, concentration-dependence (high throughput screening and structure-activity studies). Type of test: cell-based.

pIC50: −log10 of the molar value.

By pIC50 is commonly meant the negative decadic logarithm of the IC50, by convention in mol/L.

As to `Cc1c(CC(=O)O)c(=O)oc2c(C)c(OCc3cccc(I)c3)ccc12` [DRAinh-A270], the “increased oxalate transport in FRT-A3 cells” value on SLC26A3 [1] is recorded as “largely blocked”. Besides, the “reduction of oxalate absorption compared to vehicle control” value in test [2] is reported as ~70%. The “reversal of inhibition after washout” value on DRA is listed as “no reversal”. Take `CC(C)CN1C(=O)c2ccc(C(=O)Nc3ccccc3C(=O)O)cc2C1=O` [DRAinh-E0078]: the negative-log IC50 (pIC50) against SLC26A3 [3] (Class E, Table 1) was 6.16. Regarding `Cc1ccc(N2C(=O)c3ccc(C(=O)Nc4ccccc4C(=O)O)cc3C2=O)cc1C` [DRAinh-E2333], on SLC26A3 [3] (Class E, Table 1), the pIC50 was 6.51. `Cc1cccc(NS(=O)(=O)c2nnc(NC(=O)c3cccc(C)c3)s2)c1` [DRAinh-F0165]: the pIC50 against SLC26A3 [3] (Class F, Table 2) was 6.33. The same measure, in the same setting: next, `COc1cccc(C(=O)Nc2nnc(S(=O)(=O)Nc3cccc(C)c3)s2)c1` [DRAinh-F0170]: 6.51.

As to `Cc1ccc(COc2ccc3oc(-c4ccccc4)c(C(=O)O)c3c2)cc1` [DRAinh-H0163], on SLC26A3 [3] (Class H, Table 4), the pIC50 is 6.72. Take `O=C(O)c1c(-c2ccccc2)oc2ccc(OCc3ccc(Cl)c(Cl)c3)cc12` [DRAinh-H0493]: on SLC26A3 [3] (Class H, Table 4), the pIC50 was 5.64.

With `Cc1ccccc1COc1ccc2oc(-c3ccccc3)c(C(=O)O)c2c1` [DRAinh-H0696], the pIC50 against SLC26A3 [3] (Class H, Table 4) is 6.47.
